A short description of series [1]: Oral bioavailability in cynomolgus monkey at 1 mg/kg. Type of series: ADME, organism-based, Macaca fascicularis. The following applies: in vivo.
A short description of series [2]: Apparent permeability from apical to basolateral side in human Caco-2 cells at 10 uM. The class given is ADME, cell-based. For orientation: Caco-2 monolayers are a common model of the intestinal barrier.
Series [3] in a line: Cytotoxicity against human Huh7/C24 cells after 72 hrs. The class given is cell-based, Huh-7.
Series [4] relates to Hepatitis C virus. Description: Antiviral activity against HCV 1b BK delta21 in Huh7/C24 cells after 72 hrs by replicon assay. Type of series: functional, organism-based, Hepacivirus hominis. The following applies: genotype 1b BK, Huh7/C24, 72 h. A general note: A replicon is a self-replicating genome or part of one, used to study replication in cells.
Series [5] has as its system Hepatitis C virus. Briefly: Inhibition of HCV 1b BK delta21 NS5B delta21 polymerase. Set-up: species or system Hepatitis C virus subtype 1b.
A short description of series [6]: Metabolic stability in human liver microsomes assessed as half life. The class given is ADME, Microsome.
A short description of series [7]: Metabolic stability in monkey liver microsomes. Type of series: ADME, Macaca mulatta, Microsome. The following applies: rhesus monkey. A general note: Liver microsomes are a subcellular fraction often used to study metabolism.

For orientation: bioavailability means the share of a dose that reaches the circulation, judged against a reference dose that is usually intravenous. A word on the Papp A→B: it is how fast a substance crosses the layer from the apical side. Turning to `CC(C)CCn1nc(-c2cccs2)c(O)c(C2=NS(=O)(=O)c3cc(N(C)S(C)(=O)=O)ccc3N2)c1=O`, in series [1], the bioavailability turned out to be 12%. The Papp A→B at 10 µM in series [2] was determined as 0.2 ×10⁻⁶ cm/s.

As usually defined, the CC50 is the concentration at which the toxic effect on the cells reaches its halfway point. By EC50 is commonly meant the midpoint of the concentration-response curve. What is called IC50 is the concentration that inhibits the measured activity by half. As usually defined, the half-life is the time in which the quantity being followed falls by half. The compound `CC(C)CCn1c(=O)c(C2=CS(=O)(=O)c3cc(N(C)S(C)(=O)=O)ccc3N2)c(O)c2cccn21` gave a CC50 at 72 h in series [3] above 33000 nM. In addition, it took 940 nM to reach a half-maximal effect in the series on Hepatitis C virus [4] (EC50). This compound displayed an IC50 in the series on Hepatitis C virus [5] of 440 nM. The compound also showed a bioavailability in series [1] of 4%. In addition, the half-life in series [6] was above 60 min; in series [7], 20 min. For the same compound, in series [2], the apparent permeability from apical to basolateral (Papp A→B) at 10 µM turned out to be 0.012 ×10⁻⁶ cm/s.

As for `Cc1ccc(-c2nn(Cc3ccccc3)c(=O)c(C3=CS(=O)(=O)c4cc(N(C)S(C)(=O)=O)ccc4N3)c2O)s1`, in the series with Hepatitis C virus [5], the IC50 worked out at 9000 nM. Further, in series [6], the half-life is above 60 min.

The compound `CS(=O)(=O)Nc1ccc2c(c1)S(=O)(=O)C=C(c1c(O)c(-c3cccs3)nn(CC3CC3)c1=O)N2` yielded a cytotoxic concentration (CC50) at 72 h in series [3] above 1000 nM. Besides, the concentration giving a half-maximal response (EC50) in the series on Hepatitis C virus [4] was found to be 3.5 nM. The same compound gave an IC50 with Hepatitis C virus [5] of 15 nM. In addition, in series [6], the half-life was above 60 min.

`CC(C)(C)CCn1c(=O)c(C2=CS(=O)(=O)c3cc(NS(C)(=O)=O)ccc3N2)c(O)c2cccn21` displayed a CC50 at 72 h in series [3] above 1000 nM. This compound also came in with a concentration for a half-maximal effect (EC50) in the series on Hepatitis C virus [4] of 1.5 nM. Moreover, in the series with Hepatitis C virus [5], the IC50 was below 10 nM. In series [1], this compound returned a bioavailability of 1%. In addition, the half-life in series [6] amounted to 30 min; in series [7] it was 4.7 min. For the same compound, the Papp A→B at 10 µM in series [2] amounted to 0.3 ×10⁻⁶ cm/s.

Compound `Cc1ccc(-c2nn(Cc3ccccc3)c(=O)c(C3=CS(=O)(=O)c4cc(NS(C)(=O)=O)ccc4N3)c2O)s1` showed an IC50 in the series on Hepatitis C virus [5] of 1600 nM. For the same compound, in series [6], the half-life was above 60 min.

`CC(C)CCn1nc(-c2ccccc2)c(O)c(C2=CS(=O)(=O)c3cc(NS(C)(=O)=O)ccc3N2)c1=O` gave a CC50 at 72 h in series [3] above 33000 nM. The compound further had an EC50 in the series with Hepatitis C virus [4] of 190 nM. Moreover, the half-inhibitory concentration (IC50) in the series with Hepatitis C virus [5] came out at 250 nM. The bioavailability in series [1] was found to be 1%. For the same compound, the half-life in series [6] was found to be 36 min; in series [7], 34 min. For the same compound, the Papp A→B at 10 µM in series [2] was determined as 0.019 ×10⁻⁶ cm/s.

Compound `CC(C)CCn1c(=O)c(C2=CS(=O)(=O)c3cc(NS(C)(=O)=O)ccc3N2)c(O)c2cccn21` showed a half-maximal cytotoxic concentration (CC50) at 72 h in series [3] above 1000 nM. In the series on Hepatitis C virus [4], this compound had a 50% effective concentration (EC50) of 13 nM. Also, in the series on Hepatitis C virus [5], the midpoint of inhibition, the IC50, lay at 27 nM. In series [6], the half-life was above 60 min. The Papp A→B at 10 µM in series [2] is 0.027 ×10⁻⁶ cm/s.

`CS(=O)(=O)Nc1ccc2c(c1)S(=O)(=O)C=C(c1c(O)c(-c3cccs3)nn(CC3CCCC3)c1=O)N2` registered a 50% cytotoxic concentration (CC50) at 72 h in series [3] above 1000 nM. Further, a half-maximal effect in the series with Hepatitis C virus [4] (EC50) was put at 15 nM. Moreover, the 50% inhibitory concentration (IC50) with Hepatitis C virus [5] was found to be 39 nM. Also, the half-life in series [6] stood at 43 min.

As to `CCC(C)(C)CCn1nc(-c2cccs2)c(O)c(C2=CS(=O)(=O)c3cc(NS(C)(=O)=O)ccc3N2)c1=O`, the CC50 at 72 h in series [3] is above 1000 nM. This compound also had a concentration for a half-maximal effect (EC50) with Hepatitis C virus [4] of 2.7 nM. This compound also displayed an IC50 in the series on Hepatitis C virus [5] below 10 nM. Moreover, the half-life in series [6] worked out at 30 min.

`Cc1ccc(-c2nn(Cc3ccccc3)c(=O)c(C3=Nc4ccccc4S(=O)(=O)N3)c2O)s1`: in series [1], the bioavailability came to 33%. For the same compound, the half-life in series [7] was above 60 min. Also, the apparent permeability from apical to basolateral (Papp A→B) at 10 µM in series [2] is 1.3 ×10⁻⁶ cm/s.

Turning to `CC(C)CCn1nc(-c2cccs2)c(O)c(C2=CS(=O)(=O)c3cc(N(C)S(C)(=O)=O)ccc3N2)c1=O`, it took 1600 nM to reach half-maximal inhibition with Hepatitis C virus [5] (IC50).

The compound `CC(C)CCn1c(=O)c(C2=Nc3ccc(NS(C)(=O)=O)cc3S(=O)(=O)N2)c(O)c2cccn21` displayed a 50% effective concentration (EC50) with Hepatitis C virus [4] of 8.5 nM. Further, the IC50 in the series on Hepatitis C virus [5] is below 10 nM. In series [1], this compound gave a bioavailability of 0%.

Turning to `CC(C)CCn1nc(-c2cccs2)c(O)c(C2=Nc3ccc(NS(C)(=O)=O)cc3S(=O)(=O)N2)c1=O`, the apical-to-basolateral permeability (Papp A→B) at 10 µM in series [2] was 0.02 ×10⁻⁶ cm/s.

As to `CS(=O)(=O)Nc1ccc2c(c1)S(=O)(=O)C=C(c1c(O)c(-c3cccs3)nn(Cc3ccccc3)c1=O)N2`, the CC50 at 72 h in series [3] is above 1000 nM. In the series with Hepatitis C virus [4], this compound yielded an EC50 of 36 nM. For the same compound, the half-inhibitory concentration (IC50) in the series with Hepatitis C virus [5] stood at 18 nM. In series [6], the half-life is above 60 min.

`Cc1ccc(-c2nn(Cc3ccccc3)c(=O)c(C3=CS(=O)(=O)c4ccccc4N3)c2O)s1` returned an IC50 with Hepatitis C virus [5] of 12000 nM. In addition, the bioavailability in series [1] turned out to be 13%. This compound yielded a half-life in series [7] of 37 min. The apical-to-basolateral permeability (Papp A→B) at 10 µM in series [2] is 0.3 ×10⁻⁶ cm/s.

Turning to `CC(C)CCn1nc(-c2cccs2)c(O)c(C2=CS(=O)(=O)c3cc(NS(C)(=O)=O)ccc3N2)c1=O`, the cytotoxic concentration (CC50) at 72 h in series [3] is above 1000 nM. Further, in the series on Hepatitis C virus [4], the EC50 came out at 1.1 nM. The compound also returned a 50% inhibitory concentration (IC50) in the series with Hepatitis C virus [5] below 10 nM. The compound further registered a bioavailability in series [1] of 4%. Moreover, the half-life in series [6] was above 60 min; in series [7], 20 min. Also, the Papp A→B at 10 µM in series [2] stood at 0.012 ×10⁻⁶ cm/s.

The values above are taken from ChEMBL document CHEMBL1156560, “4-(1,1-Dioxo-1,4-dihydro-1lambda6-benzo[1,4]thiazin-3-yl)-5-hydroxy-2H-pyridazin-3-ones as potent inhibitors of HCV NS5B polymerase” (Bioorg Med Chem Lett, 2008).
